Results published in ChEMBL document CHEMBL1201862, “PubChem BioAssay data set” (2004).
The source made the active and inactive calls.

What was measured:
[1] = target: SUMO E1/E2 (Homo sapiens, UniProt P63279+Q9UBE0+Q9UBT2); experiment: SAR analysis of SUMOylation using HTRF in an in-Vitro dose response assay. [Related pubchem assays (depositor defined):AID2006, AID2011, AID2018, AID2069, AID2658]; assay type: functional
[2] = target: DNA dC->dU-editing enzyme APOBEC-3G (Homo sapiens, UniProt Q9HC16); experiment: Dose Response confirmation of small molecule APOBEC3G DNA Deaminase Inhibitors via a fluorescence-based single-stranded DNA deaminase assay. [Related pubchem assays (depositor defined):AID493012, AID493028]; assay type: functional
[3] = target: Tyrosyl-DNA phosphodiesterase 2 (Homo sapiens, UniProt O95551); experiment: potency against TDP2 phosphodiesterase activity – biochemical, epi absorbance, IC50, dose response (AID 743297)
[4] = target: Lysine-specific demethylase 4A (Homo sapiens, UniProt O75164); experiment: inhibition of JMJD2A H3K9me3 demethylation – biochemical, DELFIA europium, cherry-picked samples, selectivity assay for GASC-1 inhibitor project, dose response (AID 488840)
[5] = target: Lysine-specific demethylase 4C (Homo sapiens, UniProt Q9H3R0); experiment: inhibition of JMJD2C H3K9me3 demethylation – biochemical, DELFIA europium, cherry-picked samples, dose response (AID 488835); assay type: functional
[6] = target: Sphingosine 1-phosphate receptor 2 (Homo sapiens, UniProt O95136); experiment: Late stage counterscreen assay for S1P4 antagonists: Fluorescence dose response cell-based screening assay for antagonists of the Sphingosine 1-Phosphate Receptor 2 (S1P2). [Related pubchem assays (depositor defined):AID1510, AID1524, AID1692, AID1853, AID2332, AID489009, AID489017]; assay type: functional
[7] = target: Sphingosine 1-phosphate receptor 5 (Homo sapiens, UniProt Q9H228); experiment: Late stage counterscreen assay for S1P4 antagonists: Fluorescence dose response cell-based screening assay for antagonists of the Sphingosine 1-Phosphate Receptor 5 (S1P5). [Related pubchem assays (depositor defined):AID1510, AID1524, AID1692, AID1853, AID2332, AID489009, AID489017]; assay type: functional
[8] = target: Sphingosine 1-phosphate receptor 1 (Homo sapiens, UniProt P21453); experiment: Late stage counterscreen assay for S1P4 antagonists: Fluorescence dose response cell-based screening assay for antagonists of the Sphingosine 1-Phosphate Receptor 1 (S1P1). [Related pubchem assays (depositor defined):AID1510, AID1524, AID1692, AID1853, AID2332, AID489009, AID489017]; assay type: functional
[9] = target: Sphingosine 1-phosphate receptor 3 (Homo sapiens, UniProt Q99500); experiment: Late stage counterscreen assay for S1P4 antagonists: Fluorescence dose response cell-based screening assay for antagonists of the Sphingosine 1-Phosphate Receptor 3 (S1P3). [Related pubchem assays (depositor defined):AID1510, AID1524, AID1692, AID1853, AID2332, AID489009, AID489017]; assay type: functional
[10] = target: T1, Sphingosine 1-phosphate receptor 4 (Homo sapiens, UniProt O95977); experiment: potency of S1P4 blockers – cell-based, fluorescence, synthesized analogues, late-stage follow-up (AID 2346); assay type: functional
T1 sequence (O95977 whole entry): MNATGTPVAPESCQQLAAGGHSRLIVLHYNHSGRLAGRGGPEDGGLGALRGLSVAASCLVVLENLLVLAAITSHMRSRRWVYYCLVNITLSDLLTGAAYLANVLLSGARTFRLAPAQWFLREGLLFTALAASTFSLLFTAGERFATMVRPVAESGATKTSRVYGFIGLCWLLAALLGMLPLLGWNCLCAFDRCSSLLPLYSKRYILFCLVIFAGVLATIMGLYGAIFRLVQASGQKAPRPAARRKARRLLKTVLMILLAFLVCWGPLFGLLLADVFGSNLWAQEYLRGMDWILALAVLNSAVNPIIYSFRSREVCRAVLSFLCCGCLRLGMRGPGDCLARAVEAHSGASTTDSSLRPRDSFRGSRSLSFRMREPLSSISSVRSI

[11] = non-specific 3'UTR reporter inhibition in Clone20-Shn3RL – cell-based, Renilla luciferase, cherry-picked, counter-screen for Shn3 inhibitor project, dose response (AID 624133); assay type: functional
[12] = decrease of insulin promoter-GFP reporter – imaging, high-content screening, mouse beta cells (AID 1628); assay type: functional; conditions: MIN6
[13] = reduction of Shn3 3'UTR-driven luciferase in osteoblasts – cell-based, Clone20 osteoblasts, firefly luciferase, cherry-picked, dose response (AID 624132); assay type: functional;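 note: firefly luciferase luminescence from reporter carrying the Shn3 3'UTR in osteoblasts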
[14] = MIN6 cell viability loss – mouse insulinoma, cytotoxicity control, dose response (AID 2122); assay type: functional;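 note: confirmatory high-throughput counterscreen run to flag cytotoxic compounds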
[15] = loss of viability in HepG2 cells – cell-based, CellTiter-Glo, cherry-picked, cytotoxicity control for Shn3 inhibitor project, dose response (AID 624134); assay type: functional
[16] = target: T2, Mannose-6-phosphate isomerase (Homo sapiens, UniProt P34949); experiment: Confirmation of compounds inhibiting phosphomannose isomerase (PMI) via a fluorescence intensity assay using a high concentration of mannose 6-phosphate. [Related pubchem assays (depositor defined):AID1209, AID1220, AID1545, AID1553, AID1620]
T2 sequence (P34949 whole entry): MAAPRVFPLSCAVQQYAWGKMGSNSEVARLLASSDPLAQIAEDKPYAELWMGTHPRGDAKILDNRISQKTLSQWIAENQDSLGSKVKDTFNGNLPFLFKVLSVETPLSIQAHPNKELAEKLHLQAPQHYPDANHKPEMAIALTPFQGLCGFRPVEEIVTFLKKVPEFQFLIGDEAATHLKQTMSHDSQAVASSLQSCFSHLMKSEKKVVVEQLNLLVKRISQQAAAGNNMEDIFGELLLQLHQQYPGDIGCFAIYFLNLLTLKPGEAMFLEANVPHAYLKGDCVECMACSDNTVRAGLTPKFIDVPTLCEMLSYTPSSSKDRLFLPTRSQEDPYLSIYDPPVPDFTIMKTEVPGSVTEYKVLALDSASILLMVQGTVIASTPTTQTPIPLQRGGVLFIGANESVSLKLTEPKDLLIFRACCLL

[17] = target: Phosphomannomutase 2 (Homo sapiens, UniProt O15305); experiment: Counter screen SAR assay for PMM2 inhibitors via a fluorescence intensity assay. [Related pubchem assays (depositor defined):AID1545, AID1574]
[18] = target: Phosphoethanolamine/phosphocholine phosphatase (Homo sapiens, UniProt Q8TCT1); experiment: SAR assay for compounds that inhibit PHOSPHO1. [Related pubchem assays (depositor defined):AID1545, AID1565, AID1574]
[19] = target: T2, Mannose-6-phosphate isomerase; experiment: phosphomannose isomerase inhibition – biochemical, fluorescence intensity, confirmation (AID 1535)
[20] = target: T3, Cytochrome P450 1A2 (Homo sapiens, UniProt P05177);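 note: PubChem cytochrome P450 panel assay, CYP1A2 panel member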
T3 sequence (P05177 whole entry): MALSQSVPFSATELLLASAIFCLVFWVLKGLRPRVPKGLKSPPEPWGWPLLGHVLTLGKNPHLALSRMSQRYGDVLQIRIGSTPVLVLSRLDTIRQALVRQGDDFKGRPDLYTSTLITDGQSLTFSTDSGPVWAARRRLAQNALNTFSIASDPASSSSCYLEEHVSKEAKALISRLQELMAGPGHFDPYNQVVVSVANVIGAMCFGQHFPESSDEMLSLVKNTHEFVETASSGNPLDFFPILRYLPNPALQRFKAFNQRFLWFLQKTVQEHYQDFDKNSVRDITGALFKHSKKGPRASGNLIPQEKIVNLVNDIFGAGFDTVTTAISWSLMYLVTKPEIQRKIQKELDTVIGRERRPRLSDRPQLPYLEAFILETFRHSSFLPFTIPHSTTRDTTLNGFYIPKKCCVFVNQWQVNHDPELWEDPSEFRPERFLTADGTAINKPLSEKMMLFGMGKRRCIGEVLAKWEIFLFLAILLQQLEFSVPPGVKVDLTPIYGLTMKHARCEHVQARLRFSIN

[21] = target: Trypsin (Sus scrofa, UniProt P00761); experiment: trypsin protease activity blockade – biochemical, quenched peptide fluorescence, cherry-pick, selectivity assay for Rce1 protease inhibitor project, dose response (AID 488789)
[22] = target: T4, CAAX prenyl protease 2 (Saccharomyces cerevisiae S288c, UniProt Q03530); assay type: biochemical
T4 sequence (Q03530 whole entry): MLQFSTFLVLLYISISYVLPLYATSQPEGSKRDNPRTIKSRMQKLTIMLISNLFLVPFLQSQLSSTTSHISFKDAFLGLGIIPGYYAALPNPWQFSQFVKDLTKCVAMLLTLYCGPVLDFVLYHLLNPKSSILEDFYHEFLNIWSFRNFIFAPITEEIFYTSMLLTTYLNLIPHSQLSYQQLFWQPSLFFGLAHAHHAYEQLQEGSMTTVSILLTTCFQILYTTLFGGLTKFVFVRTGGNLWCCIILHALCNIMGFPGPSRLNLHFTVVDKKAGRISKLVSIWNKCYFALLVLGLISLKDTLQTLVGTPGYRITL

[23] = target: CAAX prenyl protease 1 (Saccharomyces cerevisiae S288c, UniProt P47154); experiment: yeast CAAX protease Ste24 inhibition – biochemical, S. cerevisiae, plate reader, cherry-pick, dose response (AID 488815)
CAAX prenyl protease 1, sequence (P47154 whole entry): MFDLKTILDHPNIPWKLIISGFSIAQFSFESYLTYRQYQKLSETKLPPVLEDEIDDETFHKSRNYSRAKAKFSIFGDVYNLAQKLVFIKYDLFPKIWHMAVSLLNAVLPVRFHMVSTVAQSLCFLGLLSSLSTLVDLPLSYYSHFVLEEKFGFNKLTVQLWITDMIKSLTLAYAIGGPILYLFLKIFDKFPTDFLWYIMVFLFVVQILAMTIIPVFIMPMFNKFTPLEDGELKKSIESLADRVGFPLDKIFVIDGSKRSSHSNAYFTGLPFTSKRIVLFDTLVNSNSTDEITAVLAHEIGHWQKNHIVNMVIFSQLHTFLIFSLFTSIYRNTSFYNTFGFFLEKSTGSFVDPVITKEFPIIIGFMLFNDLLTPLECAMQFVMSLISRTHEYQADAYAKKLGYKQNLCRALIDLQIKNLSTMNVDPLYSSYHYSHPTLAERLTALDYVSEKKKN

Phosphoethanolamine/phosphocholine phosphatase, sequence (Q8TCT1 whole entry): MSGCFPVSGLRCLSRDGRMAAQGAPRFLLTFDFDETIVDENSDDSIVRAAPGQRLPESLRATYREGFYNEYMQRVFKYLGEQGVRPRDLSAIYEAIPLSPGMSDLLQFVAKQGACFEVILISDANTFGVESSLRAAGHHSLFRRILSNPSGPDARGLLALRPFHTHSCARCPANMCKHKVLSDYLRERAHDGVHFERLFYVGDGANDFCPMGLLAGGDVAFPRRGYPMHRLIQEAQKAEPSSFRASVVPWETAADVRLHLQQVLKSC
Phosphomannomutase 2, sequence (O15305 whole entry): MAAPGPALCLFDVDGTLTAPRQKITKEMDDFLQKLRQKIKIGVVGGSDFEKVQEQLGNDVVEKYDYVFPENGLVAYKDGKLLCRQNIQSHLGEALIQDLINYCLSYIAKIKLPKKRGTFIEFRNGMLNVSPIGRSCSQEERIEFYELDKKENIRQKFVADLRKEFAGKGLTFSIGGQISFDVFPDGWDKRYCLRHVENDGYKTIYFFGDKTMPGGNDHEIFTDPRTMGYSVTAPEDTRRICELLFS
Sphingosine 1-phosphate receptor 3, sequence (Q99500 whole entry): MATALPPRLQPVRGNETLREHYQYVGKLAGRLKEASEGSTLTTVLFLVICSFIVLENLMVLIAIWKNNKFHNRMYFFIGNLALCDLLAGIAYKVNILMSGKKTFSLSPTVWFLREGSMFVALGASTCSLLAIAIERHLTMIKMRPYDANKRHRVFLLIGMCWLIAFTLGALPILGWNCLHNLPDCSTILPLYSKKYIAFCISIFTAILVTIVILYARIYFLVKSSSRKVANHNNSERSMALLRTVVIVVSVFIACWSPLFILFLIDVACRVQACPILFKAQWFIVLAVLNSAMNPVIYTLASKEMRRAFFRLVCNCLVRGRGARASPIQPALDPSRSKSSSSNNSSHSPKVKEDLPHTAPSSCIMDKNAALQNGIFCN
Tyrosyl-DNA phosphodiesterase 2, sequence (O95551 whole entry): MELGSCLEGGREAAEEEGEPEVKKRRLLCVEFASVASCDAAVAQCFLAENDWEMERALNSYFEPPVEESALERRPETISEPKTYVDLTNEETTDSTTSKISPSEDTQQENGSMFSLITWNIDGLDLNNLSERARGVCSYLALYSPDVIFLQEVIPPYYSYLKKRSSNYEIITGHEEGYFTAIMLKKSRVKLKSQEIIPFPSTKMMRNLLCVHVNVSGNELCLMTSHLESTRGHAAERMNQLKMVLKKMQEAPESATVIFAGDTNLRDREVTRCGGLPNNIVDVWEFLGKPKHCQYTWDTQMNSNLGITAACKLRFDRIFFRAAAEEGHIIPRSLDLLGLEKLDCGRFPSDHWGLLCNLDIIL
Lysine-specific demethylase 4A, sequence (O75164 whole entry): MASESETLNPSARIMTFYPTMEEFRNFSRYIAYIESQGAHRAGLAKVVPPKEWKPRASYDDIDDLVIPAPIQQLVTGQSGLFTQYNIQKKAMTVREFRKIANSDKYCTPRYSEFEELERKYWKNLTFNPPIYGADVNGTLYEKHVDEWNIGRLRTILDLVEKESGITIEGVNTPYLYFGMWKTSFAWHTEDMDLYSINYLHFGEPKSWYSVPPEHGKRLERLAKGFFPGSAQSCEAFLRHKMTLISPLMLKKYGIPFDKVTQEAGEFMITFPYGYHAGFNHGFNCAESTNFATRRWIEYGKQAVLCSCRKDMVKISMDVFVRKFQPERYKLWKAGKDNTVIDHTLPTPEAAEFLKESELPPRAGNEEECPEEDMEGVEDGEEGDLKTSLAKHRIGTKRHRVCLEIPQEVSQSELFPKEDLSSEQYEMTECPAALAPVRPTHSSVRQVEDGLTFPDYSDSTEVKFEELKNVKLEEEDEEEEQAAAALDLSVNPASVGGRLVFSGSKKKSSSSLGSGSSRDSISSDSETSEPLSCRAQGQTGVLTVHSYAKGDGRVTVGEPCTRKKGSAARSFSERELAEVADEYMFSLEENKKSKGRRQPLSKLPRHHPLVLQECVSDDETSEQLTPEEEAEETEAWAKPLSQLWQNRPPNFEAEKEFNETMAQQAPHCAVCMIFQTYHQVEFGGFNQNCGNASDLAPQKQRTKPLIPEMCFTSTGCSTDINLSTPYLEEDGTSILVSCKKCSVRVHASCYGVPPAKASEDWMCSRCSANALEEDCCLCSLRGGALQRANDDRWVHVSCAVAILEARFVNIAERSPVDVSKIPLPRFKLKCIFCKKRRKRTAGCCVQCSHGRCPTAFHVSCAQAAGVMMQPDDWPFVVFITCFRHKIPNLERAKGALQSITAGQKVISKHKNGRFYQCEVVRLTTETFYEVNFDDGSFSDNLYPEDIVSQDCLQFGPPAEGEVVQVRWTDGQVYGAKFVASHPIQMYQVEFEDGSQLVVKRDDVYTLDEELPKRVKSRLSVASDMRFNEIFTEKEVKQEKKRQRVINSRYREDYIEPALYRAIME
Trypsin, sequence (P00761 whole entry): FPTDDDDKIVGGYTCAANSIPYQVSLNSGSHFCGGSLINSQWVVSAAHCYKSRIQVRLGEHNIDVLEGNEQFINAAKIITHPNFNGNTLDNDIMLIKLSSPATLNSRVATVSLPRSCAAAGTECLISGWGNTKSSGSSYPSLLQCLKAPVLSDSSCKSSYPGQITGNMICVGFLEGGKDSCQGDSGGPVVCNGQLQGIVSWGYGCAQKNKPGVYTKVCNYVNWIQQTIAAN
Lysine-specific demethylase 4C, sequence (Q9H3R0 whole entry): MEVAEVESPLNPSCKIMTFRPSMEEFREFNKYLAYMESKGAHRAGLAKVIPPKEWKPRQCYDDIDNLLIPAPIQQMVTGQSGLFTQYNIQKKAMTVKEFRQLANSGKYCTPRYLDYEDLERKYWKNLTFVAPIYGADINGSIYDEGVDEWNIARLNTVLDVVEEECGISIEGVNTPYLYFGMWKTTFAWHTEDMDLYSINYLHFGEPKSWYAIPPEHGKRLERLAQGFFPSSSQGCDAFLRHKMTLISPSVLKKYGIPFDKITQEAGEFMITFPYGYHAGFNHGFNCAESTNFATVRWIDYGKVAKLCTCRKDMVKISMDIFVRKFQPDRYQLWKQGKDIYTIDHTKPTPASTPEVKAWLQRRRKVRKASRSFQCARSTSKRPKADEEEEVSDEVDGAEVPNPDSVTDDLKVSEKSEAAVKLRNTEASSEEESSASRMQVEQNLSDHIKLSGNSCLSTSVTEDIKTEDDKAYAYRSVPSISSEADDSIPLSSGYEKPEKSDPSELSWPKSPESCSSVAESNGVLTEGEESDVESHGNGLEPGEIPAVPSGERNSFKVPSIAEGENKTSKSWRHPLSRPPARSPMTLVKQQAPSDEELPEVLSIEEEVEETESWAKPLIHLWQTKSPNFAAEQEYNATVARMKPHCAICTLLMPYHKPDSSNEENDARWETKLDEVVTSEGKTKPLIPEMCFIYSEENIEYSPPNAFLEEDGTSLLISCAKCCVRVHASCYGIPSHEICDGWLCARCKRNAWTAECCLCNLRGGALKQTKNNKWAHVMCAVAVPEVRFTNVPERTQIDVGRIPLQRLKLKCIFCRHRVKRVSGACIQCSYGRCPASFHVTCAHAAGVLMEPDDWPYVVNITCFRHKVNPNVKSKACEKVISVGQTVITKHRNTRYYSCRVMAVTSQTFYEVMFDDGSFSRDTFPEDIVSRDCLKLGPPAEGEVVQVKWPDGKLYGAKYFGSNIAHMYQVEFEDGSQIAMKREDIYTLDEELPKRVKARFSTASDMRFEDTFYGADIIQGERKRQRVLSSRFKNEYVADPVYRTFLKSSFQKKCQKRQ
Sphingosine 1-phosphate receptor 1, sequence (P21453 whole entry): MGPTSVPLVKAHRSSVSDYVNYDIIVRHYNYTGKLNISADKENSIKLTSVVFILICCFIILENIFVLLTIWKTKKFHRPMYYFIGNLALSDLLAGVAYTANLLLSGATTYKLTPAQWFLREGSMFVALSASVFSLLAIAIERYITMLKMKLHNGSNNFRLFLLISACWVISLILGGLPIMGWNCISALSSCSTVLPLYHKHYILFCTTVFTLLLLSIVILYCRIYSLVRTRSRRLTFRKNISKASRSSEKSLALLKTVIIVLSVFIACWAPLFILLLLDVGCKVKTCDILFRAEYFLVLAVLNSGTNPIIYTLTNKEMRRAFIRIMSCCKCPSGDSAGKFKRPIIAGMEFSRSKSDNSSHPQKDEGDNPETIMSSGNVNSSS
Sphingosine 1-phosphate receptor 2, sequence (O95136 whole entry): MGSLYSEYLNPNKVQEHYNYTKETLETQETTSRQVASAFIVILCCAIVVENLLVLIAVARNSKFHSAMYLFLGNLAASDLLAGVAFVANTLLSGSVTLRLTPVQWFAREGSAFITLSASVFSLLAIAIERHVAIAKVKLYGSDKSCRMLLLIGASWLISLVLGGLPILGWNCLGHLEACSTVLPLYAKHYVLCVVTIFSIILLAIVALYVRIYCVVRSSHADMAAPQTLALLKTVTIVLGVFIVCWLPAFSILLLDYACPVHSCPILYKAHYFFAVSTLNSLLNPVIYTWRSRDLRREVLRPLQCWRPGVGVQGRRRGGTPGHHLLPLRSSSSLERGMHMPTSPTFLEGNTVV

**Q.** Which IC50 [1] does the source give for Sc1nnc(-c2cc(-c3ccccc3)[nH]n2)n1N=Cc1c(Cl)cccc1Cl here?
**A.** 82 µM (active)

**Q.** With O=C1NC(=O)C(Sc2ccccc2[N+](=O)[O-])C(=O)N1 as the molecule, how does the IC50 [2] read?
**A.** 52.7 µM (active)

**Q.** And the IC50 [3]?
**A.** 36.3 µM (inactive)

**Q.** What about the AC50 [4] of the same molecule?
**A.** 2.28 µM (active)

**Q.** And the AC50 [5]?
**A.** 1.23 µM (active)

**Q.** With CCOc1ccc(OC)cc1-c1ccc(C(=O)Nc2c(C)cccc2CC)o1 as the molecule, how does the IC50 [6] read?
**A.** > 25 µM (inactive)

**Q.** And the IC50 [7]?
**A.** 19.2 µM (inactive)

**Q.** What about the IC50 [8] of the same molecule?
**A.** > 25 µM (inactive)

**Q.** What about the IC50 [9] of the same molecule?
**A.** > 25 µM (inactive)

**Q.** And the IC50 [10]?
**A.** 0.414 µM (active)

**Q.** Which results are given for COc1ccccc1NC(=O)Cc1nn(C)c(=O)c2ccccc12?
**A.** AC50 [11]: 2.05 µM (active); IC50 [12]: 3.14 µM (active); AC50 [13]: 1.97 µM (active); IC50 [14]: 2.11 µM (active); AC50 [15]: 58.6 µM (active)

**Q.** What does the source list for Cc1ccc(C)c(N2Cc3ccccc3C2=O)c1?
**A.** IC50 [16]: > 100 µM (inactive); IC50 [17]: > 100 µM (inactive); IC50 [18]: > 100 µM (inactive); IC50 [19]: > 100 µM (inactive)

**Q.** With N#CC[N+]1(Cc2ccccn2)CCCC1.O=S(=O)([O-])c1ccccc1 as the molecule, how does the AC50 [20] read?
**A.** inactive

**Q.** Which AC50 [21] does the source give for COc1cccc2c(O)c(C(=O)O)cnc12 here?
**A.** 64.1 µM (active)

**Q.** And the AC50 [22]?
**A.** 36 µM (active)

**Q.** What about the AC50 [23] of the same molecule?
**A.** 6.84 µM (active)
